One test deals with T1, human NK-2 receptor (Homo sapiens, UniProt P21452).
T1 construct: expressed in transfected cells; host or cells: CHO-hNK-2R cells (CHO-derived), membrane preparation
T1 sequence (P21452 1-398): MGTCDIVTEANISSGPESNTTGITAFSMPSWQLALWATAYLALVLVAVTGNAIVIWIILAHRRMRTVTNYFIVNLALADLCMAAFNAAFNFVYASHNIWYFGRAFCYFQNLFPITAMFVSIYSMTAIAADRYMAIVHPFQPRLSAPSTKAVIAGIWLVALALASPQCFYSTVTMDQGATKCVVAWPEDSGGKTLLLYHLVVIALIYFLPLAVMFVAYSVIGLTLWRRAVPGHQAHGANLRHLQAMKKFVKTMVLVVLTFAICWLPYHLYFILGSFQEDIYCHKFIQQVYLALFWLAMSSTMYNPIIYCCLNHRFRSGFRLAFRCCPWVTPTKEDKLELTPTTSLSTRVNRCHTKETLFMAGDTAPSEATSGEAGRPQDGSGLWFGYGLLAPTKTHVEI
Put plainly: NK-2 Receptor Binding Assay ([125I]iodohistidyl-neurokinin A, CHO-hNK-2R membranes). The settings on record: for IC50: inhibits fifty percent of binding of [125I]iodohistidyl-neurokinin A to CHO-hNK-2R membranes; for NK-2 percent inhibition of binding: @ 10 μM. The essentials: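 Membranes from CHO cells stably expressing human NK-2 receptor (~400,000/cell), 40 μg protein per sample, in 50 mM Tris pH 7.4 with 3 mM MnCl2, 0.02% BSA, 4 μg/ml chymostatin. Displacement of 20 pM [125I]iodohistidyl-neurokinin A, 1 hr at room temperature; GF/B filtration, gamma counting. Non-specific binding defined with 1 μM eledoisin.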

In a further test the target is T2, NK-1 receptor (Homo sapiens, UniProt P25103).
T2 construct: endogenous in cells; host or cells: IM9 cells (human cell line), whole cells
In words: NK-1 Receptor Binding Assay (125I-labeled substance P, IM9 cells). The conditions noted are these: for IC50: inhibits fifty percent of binding of 125I-substance P to IM9 cells. In short, it runs like this:
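Radioligand binding on human IM9 cells, ended by filtration over glass fiber filters presoaked in 0.1% polyethylenimine. Specific binding of labeled substance P defined with 20 nM unlabeled ligand.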

SMILES strings stand for the structures.

T2 sequence (P25103 whole entry): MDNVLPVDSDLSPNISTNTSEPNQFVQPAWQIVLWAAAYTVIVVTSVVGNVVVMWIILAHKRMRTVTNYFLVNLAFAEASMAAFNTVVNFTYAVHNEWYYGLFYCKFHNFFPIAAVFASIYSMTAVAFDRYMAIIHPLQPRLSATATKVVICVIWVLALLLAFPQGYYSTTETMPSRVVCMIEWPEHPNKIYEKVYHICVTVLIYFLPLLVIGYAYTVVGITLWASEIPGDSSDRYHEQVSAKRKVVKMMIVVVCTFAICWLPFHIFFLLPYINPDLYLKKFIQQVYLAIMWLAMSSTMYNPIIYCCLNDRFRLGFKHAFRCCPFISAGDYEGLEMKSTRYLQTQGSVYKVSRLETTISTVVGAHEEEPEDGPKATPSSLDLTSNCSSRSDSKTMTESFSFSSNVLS

As for `COc1ccccc1CN(CC(NC(=O)CN1CCC(N2CCCCC2)CC1)c1ccc(Cl)c(Cl)c1)C(C)=O` (centres unmarked) [Example 147], the 50% inhibitory concentration (IC50) came out at 0.43 µM at human NK-2 receptor and 0.196 µM at NK-1 receptor.
For `COc1ccccc1CN(CC(Cc1ccccc1)NC(=O)CN1CCC(N2CCCCC2)CC1)C(C)=O` (centres unmarked) [Example 148], in that order: 8.5 µM and 0.024 µM.
For `CC(C)(C)OC(=O)NCC(Cc1c[nH]c2ccccc12)NC(=O)CN1CCN(c2ccccc2)CC1` (centres unmarked) [Example 151, 1-t-butoxycarbonylamino-3-(1H-indol-3-yl)-2-[N-(2-((4-phenyl)piperazin-1-yl)acetyl)amino]propane], the half-maximal inhibitory concentration (IC50) on human NK-2 receptor is 1.7 µM; at NK-1 receptor, 1.4 µM.
For `O=C(CN1CCN(c2ccccc2)CC1)NC(CNC(=O)c1ccccc1)Cc1c[nH]c2ccccc12` (centres unmarked) [Example 152], in that order: 2 µM and 1.2 µM.
In the case of `O=C(CN1CCN(c2ccccc2)CC1)NC(CNCC1CCCCC1)Cc1c[nH]c2ccccc12` (centres unmarked) [Example 153], the IC50 at human NK-2 receptor came out at 0.54 µM; at NK-1 receptor, 0.65 µM.
Molecule `CC(C)(C)OC(=O)NCC(=O)N(CC1CCCCC1)CC(Cc1c[nH]c2ccccc12)NC(=O)CN1CCN(c2ccccc2)CC1` (centres unmarked) [Example 154] displayed an IC50 on human NK-2 receptor of 0.21 µM. Moreover, the “NK-1 percent inhibition of binding” value at NK-1 receptor (@ 1 μM) is 76% @.
For `CN(CC(Cc1c[nH]c2ccccc12)NC(=O)CN1CCC(N2CCCCC2)CC1)C(=O)c1ccccc1` (centres unmarked) [Example 155], the IC50 at human NK-2 receptor worked out at 12.2 µM. In addition, on NK-1 receptor (@ 5 μM), the “NK-1 percent inhibition of binding” value is reported as 63% @.
Take `CC(=O)NC1(c2ccccc2)CCN(CC(=O)NC(Cc2c[nH]c3ccccc23)CN(C)C(=O)c2ccccc2)CC1` (centres unmarked) [Example 156]: the half-maximal inhibitory concentration (IC50) at human NK-2 receptor came to 9.5 µM. Moreover, the “NK-1 percent inhibition of binding” value at NK-1 receptor (@ 5 μM) came out at 78% @.
In the case of `CN(CC(Cc1c[nH]c2ccccc12)NC(=O)CN1CCN(c2ccccc2)CC1)C(=O)c1ccccc1` (centres unmarked) [Example 157], the IC50 on human NK-2 receptor came out at 2.9 µM. Further, the “NK-1 percent inhibition of binding” value on NK-1 receptor (@ 5 μM) was 88% @.
Take `CN(CC(Cc1c[nH]c2ccccc12)NC(=O)CN1CCN(C2CCCCC2)CC1)C(=O)c1ccccc1` (centres unmarked) [Example 158]: the IC50 at human NK-2 receptor was 3.8 µM; at NK-1 receptor it was 0.45 µM.
With `COc1ccccc1CN(CC(N)Cc1ccccc1)C(C)=O` (centres unmarked) [Example 159], on human NK-2 receptor, the “NK-2 percent inhibition of binding” value is 11 @ %. In addition, the “NK-1 percent inhibition of binding” value on NK-1 receptor (@ 5 μM) is given as 54% @.
Regarding `COc1ccccc1CN(CC(N)Cc1cn(C)c2ccccc12)C(C)=O` (centres unmarked) [Example 160], the IC50 on human NK-2 receptor is 19 µM. In addition, at NK-1 receptor (@ 5 μM), the “NK-1 percent inhibition of binding” value came to 0% @.
For the molecule `COc1ccccc1CN(CC(NC(=O)CBr)c1ccccc1)C(C)=O` (centres unmarked) [Example 161], at human NK-2 receptor, the “NK-2 percent inhibition of binding” value amounted to 0% @. The “NK-1 percent inhibition of binding” value on NK-1 receptor (@ 5 μM) was determined as 24% @.
Consider `COc1ccccc1CN(CC(Cc1ccccc1)NC(=O)CBr)C(C)=O` (centres unmarked) [Example 161a], for which the half-inhibitory concentration (IC50) at human NK-2 receptor is 17.6 µM. For the same molecule, on NK-1 receptor (@ 5 μM), the “NK-1 percent inhibition of binding” value turned out to be 77% @.
In the case of `COc1ccccc1CN(CC(Cc1cn(C)c2ccccc12)NC(=O)CBr)C(C)=O` (centres unmarked) [Example 162], the “NK-2 percent inhibition of binding” value on human NK-2 receptor is 0% @. At NK-1 receptor, this molecule gave a half-maximal inhibitory concentration (IC50) of 0.375 µM.
In the case of `CC(=O)N(C)CC(Cc1c[nH]c2ccccc12)NC(c1ccccc1)(c1ccccc1)c1ccccc1` (centres unmarked) [Example 164], the IC50 on human NK-2 receptor came to 6.2 µM. Besides, at NK-1 receptor (@ 5 μM), the “NK-1 percent inhibition of binding” value is recorded as 0% @ 5 μM.
For the molecule `CCCCN(CC(Cc1c[nH]c2ccccc12)NC(c1ccccc1)(c1ccccc1)c1ccccc1)C(C)=O` (centres unmarked) [Example 165], at human NK-2 receptor, the half-maximal inhibitory concentration (IC50) amounted to 10.5 µM. Further, the “NK-1 percent inhibition of binding” value on NK-1 receptor (@ 5 μM) turned out to be 3% @ 5 μM.
Taken in the same sequence, the figures for `CCCCCCN(CC(Cc1c[nH]c2ccccc12)NC(c1ccccc1)(c1ccccc1)c1ccccc1)C(C)=O` (centres unmarked) [Example 166] were 10 µM and 0% @ 5 μM.
Taken in the same sequence, the figures for `CC(=O)N(CC(Cc1c[nH]c2ccccc12)NC(c1ccccc1)(c1ccccc1)c1ccccc1)c1ccccc1` (centres unmarked) [Example 167] were 21 µM and 0% @ 5 μM.

For orientation: IC50 means the concentration that gives 50% inhibition. Low values mean greater potency in that assay, high ones weaker potency in that assay.

For the origin of these results see patent publication US6869957B1, “Non-peptide tachykinin receptor antagonists” (Eli Lilly and Company, priority 1993, dated 2005).
